The record followed here is article PMC8333425, “Discovery of a dual Ras and ARF6 inhibitor from a GPCR endocytosis screen” (Nature Communications, 2021).

Values joined by “and” are separate entries in the source; they are usually repeats but may differ in a detail not shown here. Equal values may be shown once.

Experiment [1] has as its system ERK1/2 activation by EGFR. In words: Western blot of EGFR-mediated ERK1/2 phosphorylation. The class given is cell-based, human. The settings on record: for p-ERK1/2 over ERK1/2, normalized to basal (0 min), EGFR: Comp 21 50 μM; for p-ERK1/2 over ERK1/2, normalized to basal (0 min), EGFR / ERK 1/2 activation, EGFR (p-ERK1/2 over ERK1/2, fold over basal): individual experiments. On the procedure:
HEK293SL cells (10^5 cells per well) were seeded in a poly-L-lysine-coated six-well plate and transiently transfected with 3 μg Flag-AT1R, HA-B2R or HA-β2AR and/or 500 ng Flag-MEK1-WT, Flag-MEK1-DD, Flag-BRAF-WT, Flag-BRAF-V600E, Flag-K-Ras-WT, Flag-K-Ras-G12V, HA-ARF6-WT, or HA-ARF6-T27N. Gαq/11 KO and βarr1/2 KO cells were seeded onto 100 mm dishes at a density of 10^6 cells per dish. Next day, cells were transfected with 3 μg AT1R alone or along with 500 ng of β-arrestin2 using PEI. After 18 h of transfection, cells were detached and re-seeded onto poly-L-lysine coated 12-well plates (~1.5–2 × 10^5cells/well) for subsequent experiments. Forty-eight hours post transfection, in a 37 °C water bath, cells were serum-starved for 30 min, pretreated with DMSO (0.1%) or compound 21/Rasarfin (50 µM or at indicated concentrations) for 30 min, then stimulated or not with the indicated ligand [AngII (1 µM), BK (1 µM), Iso (10 µM) or EGF (100 ng/ml)] at indicated times. Cells were put on ice, washed with PBS and solubilized in 2x laemmli buffer (250 mM Tris–HCl pH 6.8, 2% SDS (w/v), 10% glycerol (v/v), 0.01% bromophenol blue (w/v) and 5% β-mercaptoethanol (v/v)) by heating at 65 °C for 15 min. Lysates were resolved on 10 or 14% SDS-PAGE, transferred to nitrocellulose membranes and immunoblotted for p-ERK1/2, ERK1/2, p-Akt, Akt, HA, Myc, β-actin or FLAG. ImageLab 5.2 software was used to quantify the digital blots as fold of the phosphorylated protein over total protein, which were then normalized as indicated in the figure legends. Uncropped immunoblots are provided in the Source Data file.

Experiment [2] concerns AT1R. Put plainly: Confocal microscopy of YFP-tagged AT1R internalization. The class given is cell-based, human. The settings on record: 50 μM; AngII. The method, then:
One day before transfection, cells were seeded in 35-mm glass-bottom dishes (MatTek Corporation) at a density of 1 × 10^5 cells per dish. For the recordings of receptor internalization, HEK293 SL cells were transfected with 2 μg of AT1R-YFP. For the recordings of β-arrestin-2 recruitment to the receptor, HEK293SL cells were transfected with 50 ng of β-arrestin2-YFP and 250 ng of Flag-AT1R or HA-B2R. Forty-eight hours post-transfection, cells were serum starved, preincubated with DMSO (0.1% final concentration) or Rasarfin (50 μM) for 30 min at 37 °C. AT1R-expressing cells were stimulated with angiotensinII (AngII; 100 nM) and B2R-expressing cells were stimulated with bradykinin (BK; 1 μM) for 30 min (receptor-YFP) or 15 min (β-arrestin2-YFP). Cells were imaged with Zeiss LSM-510 and/or LSM-710 laser scanning confocal microscope. To detect YFP, […] and BP 505–550 nm emission filter. Images (2048 × 2048) were collected using a 63x oil immersion lens.

Regarding `CC(C)C(=O)N1CCN(c2ccc(NC(=O)c3cc4ccccc4o3)cc2Cl)CC1` [Compound 21], in experiment [1] (50 μM), the “MAPK response promoted by EGFR” value is recorded as “blocked MAPK responses”. For the same compound, the “p-ERK1/2 over ERK1/2, normalized to basal (0 min), EGFR” value in experiment [1] (time 0 min) is 1; in experiment [1] (time 2 min), 0.3674 and 5.171 and 13.8891 and 0.7219; in experiment [1] (time 5 min) it was 0.3034 and 7.285 and 51.2032 and 0.6227. Besides, the IC50 in experiment [1] (Homo sapiens, read-out: IC50 for inhibition of ERK1/2 activation by EGFR) worked out at 4 µM. Also, the “ERK 1/2 activation, EGFR (p-ERK1/2 over ERK1/2, fold over basal)” value in experiment [1] (Log [Comp 21] (M) -4.3) is 3.411 percent compared to DMSO and 1.173 percent compared to DMSO; in experiment [1] (Log [Comp 21] (M) -5) it was 5.269 percent compared to DMSO and 7.4638 percent compared to DMSO and 1.3341 percent compared to DMSO; in experiment [1] (Log [Comp 21] (M) -5.3) it was 22.8883 percent compared to DMSO and 78.7892 percent compared to DMSO and 45.9513 percent compared to DMSO; in experiment [1] (Log [Comp 21] (M) -6) it was 104.782 percent compared to DMSO and 74.7611 percent compared to DMSO; in experiment [1] (Log [Comp 21] (M) -6.3) it was 80.4826 percent compared to DMSO and 84.8524 percent compared to DMSO; in experiment [1] (Log [Comp 21] (M) -7), 108.069 percent compared to DMSO and 86.5762 percent compared to DMSO. The “AT1R localization by microscopy” value in experiment [2] is recorded as “remained trapped at the PM”.
